Experimental data as given in publication PMC3983353 (Journal of Medicinal Chemistry, 2014).
One block for each molecule: values may come before it.

Tests used:
[1] = target: rat nNOS (Rattus norvegicus, UniProt P29476)
[2] = system: Sk-Mel28 cells; conditions: read-out: EC50 in Sk-Mel28 cells; cited from earlier work
[3] = system: metastatic melanoma A375 cell line; conditions: read-out: EC50 in A375 cells; cited from earlier work
[4] = system: immortalized melanocytes; conditions: cannot calculate = toxic even at lower concentration and no dose–activity curve occurred

Sequence of rat nNOS (P29476 whole entry): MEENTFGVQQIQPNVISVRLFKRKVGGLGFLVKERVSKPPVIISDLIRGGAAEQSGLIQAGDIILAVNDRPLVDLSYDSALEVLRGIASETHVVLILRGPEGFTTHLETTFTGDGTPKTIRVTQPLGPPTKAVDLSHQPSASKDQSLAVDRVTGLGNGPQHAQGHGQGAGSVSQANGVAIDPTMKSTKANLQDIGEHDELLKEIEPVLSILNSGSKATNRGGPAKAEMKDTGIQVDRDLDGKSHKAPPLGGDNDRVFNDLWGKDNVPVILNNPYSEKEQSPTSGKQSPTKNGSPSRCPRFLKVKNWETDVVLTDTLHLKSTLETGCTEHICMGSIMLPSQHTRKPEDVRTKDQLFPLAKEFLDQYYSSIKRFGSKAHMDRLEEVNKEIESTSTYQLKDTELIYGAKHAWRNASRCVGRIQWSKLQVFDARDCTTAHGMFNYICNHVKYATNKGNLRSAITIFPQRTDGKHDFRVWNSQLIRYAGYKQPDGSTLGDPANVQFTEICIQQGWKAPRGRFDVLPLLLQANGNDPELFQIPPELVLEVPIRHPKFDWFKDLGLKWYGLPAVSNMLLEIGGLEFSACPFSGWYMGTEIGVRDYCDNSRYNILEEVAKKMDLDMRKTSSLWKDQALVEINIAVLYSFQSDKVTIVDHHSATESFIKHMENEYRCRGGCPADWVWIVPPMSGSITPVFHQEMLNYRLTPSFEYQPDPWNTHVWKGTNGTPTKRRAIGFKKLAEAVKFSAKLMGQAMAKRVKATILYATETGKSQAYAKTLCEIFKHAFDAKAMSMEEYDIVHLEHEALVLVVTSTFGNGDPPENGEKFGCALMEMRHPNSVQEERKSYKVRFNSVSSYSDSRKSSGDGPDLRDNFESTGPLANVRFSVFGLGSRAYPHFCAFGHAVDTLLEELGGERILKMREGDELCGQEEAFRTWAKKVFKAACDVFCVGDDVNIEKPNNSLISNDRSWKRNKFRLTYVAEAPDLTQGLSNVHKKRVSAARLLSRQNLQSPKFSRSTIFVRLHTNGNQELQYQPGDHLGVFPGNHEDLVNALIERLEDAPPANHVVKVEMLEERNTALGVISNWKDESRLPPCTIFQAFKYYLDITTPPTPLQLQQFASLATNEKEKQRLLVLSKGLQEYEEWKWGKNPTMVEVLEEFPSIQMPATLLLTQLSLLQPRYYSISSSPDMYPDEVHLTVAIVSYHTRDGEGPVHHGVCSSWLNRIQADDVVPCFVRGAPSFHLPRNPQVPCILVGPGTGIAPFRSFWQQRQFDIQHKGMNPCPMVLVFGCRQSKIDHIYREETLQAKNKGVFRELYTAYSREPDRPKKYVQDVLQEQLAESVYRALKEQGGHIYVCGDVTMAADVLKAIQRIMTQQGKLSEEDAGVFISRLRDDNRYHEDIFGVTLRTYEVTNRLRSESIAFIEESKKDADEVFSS

lower nNOS potency than 16 [1]: ~7 fold
SMILES: CCN(CCc1cccc(F)c1)Cc1cccc(NC(=N)c2cccs2)c1 [compound 17, N-(3-((Ethyl(3-fluorophenethyl)amino)methyl)phenyl)thiophene-2-carboximidamide]

SMILES: N.N.[Cl][Pt][Cl] [cisplatin]
EC50 [2]: 14.3 µM | EC50 [3]: 4.2 µM

SMILES: N=C(Nc1cccc(CCNCc2cccc(NC(=N)c3cccs3)c2)c1)c1cccs1 [compound 13, N-(3-(2-((3-(Thiophene-2-carboximidamido)benzyl)amino)ethyl)phenyl)thiophene-2-carboximidamide]
EC50 immortalized melanocytes [4]: cannot calculate ^b

lower nNOS potency than 11 [1]: 2 fold
SMILES: N=C(Nc1cccc(OCCCOc2cccc(NC(=N)c3cccs3)c2)c1)c1cccs1 [compound 12, N,N′-((Propane-1,3-diylbis(oxy))bis(3,1-phenylene))bis(thiophene-2-carboximidamide)]
